Data taken from paper PMC8684776, “Discovery and characterization of potent And‐1 inhibitors for cancer treatment” (Clinical and Translational Medicine, 2021).
Where a name gives a salt, the structure may show the parent alone. Read-outs that look alike come from different tables or passages of the source.

Key:
[1] = target: T1, And‐1 (Homo sapiens, UniProt O75717); experiment: And‐1 luciferase reporter assay (qHTS of LOPAC); assay type: cell-based
T1 construct: expressed in transfected cells
T1 sequence (O75717 1-1129): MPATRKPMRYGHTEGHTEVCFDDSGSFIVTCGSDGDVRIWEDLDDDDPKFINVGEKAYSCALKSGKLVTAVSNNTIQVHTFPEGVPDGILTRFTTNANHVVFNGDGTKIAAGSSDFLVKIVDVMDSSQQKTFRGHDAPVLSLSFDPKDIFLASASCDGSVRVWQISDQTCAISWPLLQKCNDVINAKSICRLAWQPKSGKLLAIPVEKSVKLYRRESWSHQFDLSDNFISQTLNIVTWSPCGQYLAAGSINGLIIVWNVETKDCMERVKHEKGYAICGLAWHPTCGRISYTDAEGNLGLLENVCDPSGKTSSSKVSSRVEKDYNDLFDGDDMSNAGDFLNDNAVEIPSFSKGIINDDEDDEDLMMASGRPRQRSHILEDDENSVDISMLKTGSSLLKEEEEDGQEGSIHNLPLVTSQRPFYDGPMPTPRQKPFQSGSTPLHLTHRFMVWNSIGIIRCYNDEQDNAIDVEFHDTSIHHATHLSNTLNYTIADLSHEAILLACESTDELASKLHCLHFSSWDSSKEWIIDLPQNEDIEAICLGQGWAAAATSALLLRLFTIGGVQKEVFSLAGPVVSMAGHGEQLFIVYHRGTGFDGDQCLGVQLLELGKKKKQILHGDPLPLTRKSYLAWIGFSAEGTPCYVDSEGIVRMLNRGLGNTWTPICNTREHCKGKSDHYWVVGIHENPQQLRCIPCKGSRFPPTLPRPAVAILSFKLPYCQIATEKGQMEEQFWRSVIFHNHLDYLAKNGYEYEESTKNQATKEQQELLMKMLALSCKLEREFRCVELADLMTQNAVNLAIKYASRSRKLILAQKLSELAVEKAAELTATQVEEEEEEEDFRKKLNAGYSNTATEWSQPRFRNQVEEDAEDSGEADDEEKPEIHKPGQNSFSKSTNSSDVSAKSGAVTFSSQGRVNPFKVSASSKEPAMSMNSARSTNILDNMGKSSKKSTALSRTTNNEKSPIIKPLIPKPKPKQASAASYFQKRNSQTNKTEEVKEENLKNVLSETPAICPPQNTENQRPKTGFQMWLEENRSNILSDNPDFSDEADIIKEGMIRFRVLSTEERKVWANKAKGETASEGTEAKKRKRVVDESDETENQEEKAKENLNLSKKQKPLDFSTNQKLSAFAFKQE
Experimental: And‐1‐Luc reporter HEK293 cells were dispensed at 2000 cells/5 μl/well in tissue culture treated white wall/solid bottom 1536‐well plates (Greiner Bio‐One North America, Monroe, NC, USA) using a Thermo Scientific Multidrop Combi (ThermoFisher Scientific, Inc.). After the cells were incubated in assay plates at 37°C for 5 h, 23 nl of compounds (LOPAC) was transferred into the assay plates using a Wako Pintool station (Wako Automation, San Diego, CA, USA). The assay plates were incubated at 37°C for 48 h, followed by the addition of 5 μl ONE‐Glo luciferase reagent (Promega, Madison, WI, USA) using a Flying Reagent Dispenser (Aurora Discovery, Carlsbad, CA, USA). After 30 min of incubation at room temperature, the luminescence intensity of the assay plates was quantified using a ViewLux plate reader (PerkinElmer, Shelton, CT, USA).
(§1) To evaluate whether And‐1 is required for tumor survival, we examined the dependence of a broad range of tumor cells on And‐1 by using dependency score analysis from DepMap (https://depmap.org/portal/). […] To identify And‐1 specific pharmacologic inhibitor, we established an HTS assay to identify small molecules that can inhibit And‐1 by inducing its degradation. To this end, we first established two stable cell lines, HEK293T‐And‐1‐Luc expressing And‐1 protein fused to a luciferase reporter gene, and HEK293T‐Luc expressing luciferase only (Figure 1B). HEK293T‐And‐1‐Luc cells allow us to monitor And‐1 protein levels by measuring luciferase activity in a high‐throughput manner. Using these cell lines, we conducted a screening for And‐1 inhibitors against a LOPAC small molecule library by using a quantitative HTS (qHTS) as we described previously.[46]

[2] = target: T1, And‐1; experiment: Immunoblot of And‐1 expression in IGROV1 cells; assay type: cell-based; settings: read-out: IC50, And‐1 expression
Text: (§2) The assay was as previously described.[45]
as §1
(A) Dependency score of WDHD1/And‐1 analyzed by DepMap. […] (B) Establishment of HEK293T‐And‐1‐Luc and HEK293T‐Luc cells for the high‐throughput screen (HTS). (C) Schematic diagram of quantitative HTS (qHTS) for And‐1 inhibitors. (D) Immunoblot analyses to detect And‐1 expression in IGROV1 cells treated with resveratrol at indicated concentrations. (E) Chemical structures of resveratrol and its three analogs as indicated. (F) Left, immunoblot analyses to detect And‐1 expression in IGROV1 cells treated with And‐1 inhibitors at the indicated concentration. Right, quantification of And‐1 expression shown in the left panel.

[3] = system: IGROV1 CR cells; experiment: SRB cell viability assay, combination with cisplatin; assay type: cell-based, human; settings: by combination index (CI < 1 synergism)
Experimental: as §2
Synergy of each combination was indicated as combination index (CI) values. […] (C) Tumors of IGROV1 CR xenograft treated with control (vehicle), cisplatin (8 mg/kg/day intraperitoneally), CH3 (20 mg/kg/3days intraperitoneally), or a combination of CH3 and cisplatin for 3 weeks. Ruler scale is in centimeters. (D) Growth curves of IGROV1 CR xenografts. […] (E) IHC staining against And‐1 antibodies of tumor samples from four treated groups of mice. Scale bar: 50 μm. […] Ruler scale is in centimeters. (G) Growth curves of IGROV1 CR xenografts. […] (H) IHC staining against And‐1 antibodies of tumor samples from four treated groups of mice. Scale bar: 50 μm.

[4] = system: IGROV1 cells; experiment: Flow cytometry cell cycle analysis (propidium iodide); assay type: cell-based, human; settings: 1 µM, FACS
Text: And‐1 is involved in DNA replication in the S‐phase and is required for the S‐phase progression.[15] We assumed that And‐1 inhibitors should be able to inhibit DNA replication by targeting And‐1.
(§3) Supplementary Figure S1. Identification of novel And-1 inhibitors. […]
Molecular weight of each compound was indicated. (C) Flow cytometry

[5] = system: IGROV1 cells; experiment: Immunofluorescence of CtIP recruitment to micro-irradiation induced DSB sites; assay type: cell-based, human; settings: 1 µM
Experimental: as §3
siAnd-1. S: S phase. (D) Immunofluorescence assay to detect CtIP and γH2AX foci formation after CH3 […]
IGROV1 cells treated with DMSO, 1 […]
to immunostain γH2AX and CtIP. For each experiment, 50 cells were counted and the percentage of cells with co-localization of γH2AX and CtIP foci was determined. Data represent means ± SEM from three independent experiments. (E) HR reporter assay to detect HR repair efficiency in cells treated with CH3. […]

[6] = system: IGROV1 CR xenografts; experiment: Cisplatin resistant IGROV1 CR xenograft in nude mice; assay type: in vivo, mouse
[7] = design: method as in PMID 15779070; settings: due to rapid metabolism; cited from earlier work
[8] = reduction of luciferase activity, qHTS, column 1, read-out: IC50 (uM) 1
[9] = reduction of luciferase activity, qHTS, column 2
[10] = reduction of luciferase activity, qHTS, average of 1 and 2, read-out: IC50 (uM) average
[11] = reduction of luciferase activity, qHTS, column 2, read-out: IC50 (uM) 2

In the case of `Nc1ccn([C@@H]2O[C@H](CO)[C@@H](O)C2(F)F)c(=O)n1` [Gemcitabine hydrochloride], the DC50 [1, 8] is reported as 0.02 µM and the “IC50 (uM) 2” value [1, 9] is reported as “inactive”.

`CC[n+]1c(/C=C/C=C2/N(C)c3ccccc3C2(C)C)sc2ccccc21` [AC-93253 iodide] gave an IC50 [1, 10] of 0.76 µM, an IC50 [1, 8] of 1.09 µM and an IC50 [1, 11] of 0.44 µM.

In the case of `CNc1ccc2oc(C[C@H]3O[C@@]4(CC[C@H]3C)O[C@H]([C@H](C)C(=O)c3ccc[nH]3)[C@H](C)C[C@H]4C)nc2c1C(=O)O` [Calcimycin], the DC50 [1, 10] is reported as 8.32 µM, the DC50 [1, 8] is reported as 6.1 µM and the DC50 [1, 11] is reported as 10.5 µM.

In the case of `C/C=C(/C)C(=O)O[C@H]1C(C)=C2[C@H]([C@@H]1OC(=O)CCCCCCC)[C@@](C)(OC(C)=O)C[C@H](OC(=O)CCC)[C@@]1(O)[C@H]2OC(=O)[C@@]1(C)O` [Thapsigargin], the DC50 [1, 10] is reported as 6.95 µM, the DC50 [1, 8] is reported as 13.3 µM and the DC50 [1, 11] is reported as 0.63 µM.

Work on `c1ccc2c(c1)[I+]c1ccccc1-2` [Diphenyleneiodonium chloride] yielded a DC50 ([1]; read-out: IC50 (uM) 1) of 0.84 µM, a DC50 ([1]; read-out: IC50 (uM) 2) of 0.03 µM and a DC50 ([1]; read-out: IC50 (uM) average) of 0.43 µM.

`O=C1C(SCCO)=C(SCCO)C(=O)c2ccccc21` [NSC 95397] gave an IC50 [1, 10] of 9.42 µM, an IC50 [1, 8] of 11.2 µM and an IC50 [1, 11] of 7.68 µM.

With `COc1cc2c(cc1O)CC[C@@H]1[C@@H]2CC[C@]2(C)[C@@H](O)CC[C@@H]12` [2-methoxyestradiol] the DC50 [1, 8] was 1.67 µM and the “IC50 (uM) 2” value [1, 9] was “inactive”.

For `CC[C@@]1(O)C(=O)OCc2c1cc1n(c2=O)Cc2cc3ccccc3nc2-1` [(S)-(+)-Camptothecin], the IC50 [1, 8] was 0.73 µM and the “IC50 (uM) 2” value [1, 9] was “inactive”.

For `C=CCc1cccc(/C=N/NC(=O)CN2CCN(Cc3ccccc3)CC2)c1O` [PAC-1], the IC50 [1, 10] was 21.3 µM, the IC50 [1, 8] was 18.8 µM and the IC50 [1, 11] was 23.8 µM.

In the case of `Cc1c(-c2ccc(O)cc2)n(Cc2ccc(OCCN3CCCCCC3)cc2)c2ccc(O)cc12` [BZA, bazedoxifene acetate], the DC50 [2] is reported as 0.32 µM, the “synergy with cisplatin to inhibit cell proliferation” value [3] is reported as “significant synergy with cisplatin” and the “percentage of cells in the S‐phase” value [4] is reported as “reduced the percentage of cells in the S‐phase”. The “recruitment of CtIP to DSB sites induced by micro‐irradiation” value [5] was “significantly decreased”, the “expression of And‐1 in tumours (IHC)” value [6] was “suppressed expression of And‐1 in tumours” and the “resistant tumour growth, combination with cisplatin vs cisplatin alone” value ([6]; cisplatin 8 mg/kg + CH3 20 mg/kg or BZA 2 mg/kg, intraperitoneal, 3 weeks) was “significantly reduced resistant tumour growth”.

With `CC[C@@]1(O)C(=O)OCc2c1cc1n(c2=O)Cc2cc3c(CN(C)C)c(O)ccc3nc2-1` [Topotecan hydrochloride hydrate] the IC50 [1, 8] was 0.61 µM and the “IC50 (uM) 2” value [1, 9] was “inactive”.

`COCCOC(=O)C1=C(C)NC(C)=C(C(=O)OC/C=C/c2ccccc2)C1c1cccc([N+](=O)[O-])c1` (centres unmarked) [Cilnidipine] gave a DC50 [1, 10] of 21.1 µM, a DC50 [1, 8] of 22.9 µM and a DC50 [1, 11] of 19.3 µM.

`CCN(CC)CCOc1ccc(Nc2ncc3cc(-c4c(Cl)cccc4Cl)c(=O)n(C)c3n2)cc1` [PD-166285 hydrate] gave an IC50 [1, 10] of 3.03 µM, an IC50 [1, 8] of 3.33 µM and an IC50 [1, 11] of 2.73 µM.

For `Oc1ccc(/C=C/c2cc(O)cc(O)c2)cc1` [Resveratrol, 3,5,4′‐trihydroxy‐trans‐stilbene], the DC50 ([1]; HEK293T‐And‐1‐Luc cells, qHTS, read-out: IC50, reduction of And‐1 levels (screening)) was 18.9 µM, the DC50 [1, 10] was 18.9 µM and the DC50 [1, 8] was 14.9 µM. For the same compound, the DC50 [1, 11] was 22.9 µM, the DC50 [2] was 16.7 µM and the oral bioavailability [7] was “low oral bioavailability”.
